Results from article PMC5516028, “Molecular tools for GABAA receptors: High affinity ligands for β1-containing subtypes” (Scientific Reports, 2017).
Where “and” joins values, the source holds several entries; their conditions need not be identical. Equal entries are not always repeated.

Legend:
Assay type in all cases: cell-based
[1] = biological target: T1, α1β1 GABAA receptors (Rattus norvegicus, UniProt P15431+P62813); assay: Two electrode voltage clamp in Xenopus laevis oocytes, α1β1
T1 construct: expressed in transfected cells; host or cells: Xenopus laevis oocytes, mRNA injected
T1 sequence (P62813 28-455): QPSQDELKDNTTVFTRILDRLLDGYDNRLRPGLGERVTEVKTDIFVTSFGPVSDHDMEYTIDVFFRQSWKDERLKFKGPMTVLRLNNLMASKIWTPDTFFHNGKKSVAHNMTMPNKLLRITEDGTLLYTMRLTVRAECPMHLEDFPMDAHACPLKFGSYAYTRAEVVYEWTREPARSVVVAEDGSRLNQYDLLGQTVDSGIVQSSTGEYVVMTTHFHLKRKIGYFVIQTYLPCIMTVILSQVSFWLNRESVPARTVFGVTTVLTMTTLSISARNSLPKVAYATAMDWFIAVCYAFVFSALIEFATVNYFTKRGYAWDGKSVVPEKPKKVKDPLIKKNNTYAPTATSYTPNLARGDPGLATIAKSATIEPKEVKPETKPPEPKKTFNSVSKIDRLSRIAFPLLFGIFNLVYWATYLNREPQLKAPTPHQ
T1 sequence (P15431 26-474): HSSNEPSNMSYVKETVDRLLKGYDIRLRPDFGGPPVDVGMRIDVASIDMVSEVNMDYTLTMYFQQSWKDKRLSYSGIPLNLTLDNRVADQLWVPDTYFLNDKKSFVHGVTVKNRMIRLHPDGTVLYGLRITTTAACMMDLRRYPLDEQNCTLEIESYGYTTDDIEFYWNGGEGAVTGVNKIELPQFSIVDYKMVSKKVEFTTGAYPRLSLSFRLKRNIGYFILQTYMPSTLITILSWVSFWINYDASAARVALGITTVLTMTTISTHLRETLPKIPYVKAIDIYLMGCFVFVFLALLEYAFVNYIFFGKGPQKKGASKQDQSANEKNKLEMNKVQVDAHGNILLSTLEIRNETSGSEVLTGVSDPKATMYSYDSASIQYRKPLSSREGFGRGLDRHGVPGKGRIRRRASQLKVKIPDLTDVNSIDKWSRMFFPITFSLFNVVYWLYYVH
Description: (§1) cDNA’s of rat GABAA receptor subunits α1, α4, β1, β2, β3 and γ2S were cloned as described. cDNAs of the rat subunits α2, α3 and α5 were gifts from P. Malherbe, that of α6 and γ1 were gifts of P. Seeburg and that of δ was a gift of C. Czajkowski. The mutants were constructed using the Q5 Site-Directed Mutagenesis Kit (New England Biolabs) following manufacturer’s instruction. We used the wild-type rat β3-pCI vector as template and the primers […] and […] resulting in a substitution of amino acid N41 (AAC) to R (AGG). We used the wild-type rat β1-pCI vector as template and the primers […] and […] resulting in a substitution of amino acid R41 (CGG) to N (AAC). The mutated subunits were confirmed by sequencing.
(§2) In vitro transcription of mRNA was based on the cDNA expression vectors encoding for rat GABAA receptor subunits α1–6, β1-3, γ1,2, δ and the two β mutants (β1R41N and β3N41R)[40]. After linearizing the cDNA vectors with appropriate restriction endonucleases, the cDNA was purified and concentrated with the DNA Clean and Contentrator ^TM Kit (Zymoresearch, Catalog No. D4005). Capped transcripts of the purified cDNA were produced using the mMESSAGE mMACHINE® T7 transcription kit (Ambion, TX, USA) and polyadenylated using the Ambion PolyA tailing kit (Ambion). After transcription and polyadenylation the RNA was purified with the MEGAclear ^TM Kit (Ambion, Catalog No. AM1908). The final RNA concentration was measured on NanoDrop® ND-1000 and finally diluted and stored in diethylpyrocarbonate-treated water at −80 °C. For the microinjection, the RNA of αβ receptor combinations was mixed at 1:1 ratio (which leads to αβ receptors that consist of predominantly 3 beta and 2 alpha subunits[27]), for αkβlγm (k = 1–3, l = 1, 3, m = 1, 2) receptors at 1:1:5 ratio, for αkβ3γ2 (k = 4–6) and αkβlδ (k = 1, 4 and 6, l = 1, 3) receptor combinations at 3:1:5 ratio.
(§3) Mature female Xenopus laevis (Nasco, WI) were anesthetized in a bath of ice-cold 0.17% Tricain (Ethyl-m-aminobenzoate, Sigma, MO) before decapitation in full accordance with all rules of the Austrian animal protection law (see http://www.ris.bka.gv.at/Dokumente/BgblAuth/BGBLA_2012_I_114/BGBLA_2012_I_114.pdf) and the Austrian animal experiment by-laws (see https://www.ris.bka.gv.at/Dokumente/BgblAuth/BGBLA_2012_II_522/BGBLA_2012_II_522.pdf) which implement the European Directive 2010/63/EU (see http://eur-lex.europa.eu/LexUriServ/LexUriServ.do?uri=OJ:L:2010:276:0033:0079:en:PDF) into the Austrian law (all information accessed on July 27, 2016). The frog’s ovaries were transferred to ND96 medium (96 mM NaCl, 2 mM KCl, 1 mM MgCl2, 5 mM HEPES; pH 7.5). Stage 5–6 oocytes with the follicle cell layer around them were roughly dissected with forceps into packages of 10–15 cells and washed in Ca^2+-free ND96 medium. Cells were then digested with collagenase (type IA, Sigma, NO, 1 mg/mL ND96) at 18 °C shaking at 30 rpm for 30–60 minutes and gently defolliculated with the aid of a glass pipette with appropriate tip diameter and a platinum loop. Defolliculated cells were stored at 18 °C for at least 6 hours in ND96 solution containing penicillin G (10000 IU/100 mL) and streptomycin (10 mg/100 mL) in order to preselect and exclude damaged cells from further treatment. Healthy defolliculated oocytes were injected with an aqueous solution of mRNA. A total of 4.5 ng of mRNA per oocyte was injected with a Nanoject II (Drummond). After injection of mRNA, oocytes were incubated at 18 °C (ND96 + antibiotic) for 2–3 days for αβ receptors and for 3–4 days for αβγ or αβδ receptors before recording. When cells were measured at later time points, oocytes were stored at +4 °C instead of 18 °C.
(§4) For electrophysiological recordings, oocytes were placed on a nylon-grid in a bath of Ca^2+-containing NDE solution medium [96 mM NaCl, 5 mM HEPES-NaOH (pH 7.5), 2 mM KCl, 1 mM MgCl2, 1.8 mM CaCl2].

[2] = biological target: T2, α1β1γ1 GABAA receptors (Rattus norvegicus, UniProt P15431+P62813); assay: Two electrode voltage clamp in Xenopus laevis oocytes, α1β1γ1
T2 construct: expressed in transfected cells; host or cells: Xenopus laevis oocytes, mRNA injected
T2 sequence (P62813 28-455): as the sequence (P62813 28-455) above
T2 sequence (P15431 26-474): as the sequence (P15431 26-474) above
T2 sequence (P23574 36-465 partner limits assumed): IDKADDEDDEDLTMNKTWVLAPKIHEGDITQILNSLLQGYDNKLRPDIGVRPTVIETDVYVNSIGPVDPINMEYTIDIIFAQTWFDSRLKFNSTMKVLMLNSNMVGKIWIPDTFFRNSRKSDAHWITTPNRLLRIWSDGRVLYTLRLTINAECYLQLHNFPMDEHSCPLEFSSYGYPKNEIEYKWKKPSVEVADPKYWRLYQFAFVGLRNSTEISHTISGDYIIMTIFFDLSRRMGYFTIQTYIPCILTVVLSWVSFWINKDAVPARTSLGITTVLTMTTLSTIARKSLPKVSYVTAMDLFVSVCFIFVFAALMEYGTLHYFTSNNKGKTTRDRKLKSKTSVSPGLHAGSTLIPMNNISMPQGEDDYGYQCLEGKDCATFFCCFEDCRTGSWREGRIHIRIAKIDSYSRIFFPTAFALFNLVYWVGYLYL
Description: as §1, §2, §3, §4

[3] = biological target: T3, α1β1δ GABAA receptors (Rattus norvegicus, UniProt P15431+P62813); assay: Two electrode voltage clamp in Xenopus laevis oocytes, α1β1δ
T3 construct: expressed in transfected cells; host or cells: Xenopus laevis oocytes, mRNA injected
T3 sequence (P62813 28-455): as the sequence (P62813 28-455) above
T3 sequence (P15431 26-474): as the sequence (P15431 26-474) above
T3 sequence (P18506 17-449 partner limits assumed): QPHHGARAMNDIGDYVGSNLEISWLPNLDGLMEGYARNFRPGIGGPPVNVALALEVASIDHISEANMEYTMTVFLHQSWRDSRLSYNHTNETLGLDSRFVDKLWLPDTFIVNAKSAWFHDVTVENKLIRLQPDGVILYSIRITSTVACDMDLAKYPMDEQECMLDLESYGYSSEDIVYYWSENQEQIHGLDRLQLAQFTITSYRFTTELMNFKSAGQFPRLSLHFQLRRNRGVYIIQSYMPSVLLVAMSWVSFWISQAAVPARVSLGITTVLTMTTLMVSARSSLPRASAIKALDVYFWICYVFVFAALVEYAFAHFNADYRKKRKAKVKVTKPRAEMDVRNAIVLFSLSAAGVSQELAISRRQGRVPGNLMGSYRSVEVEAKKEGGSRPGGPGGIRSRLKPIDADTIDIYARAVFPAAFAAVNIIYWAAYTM
Description: as §1, §2, §3, §4

[4] = biological target: T4, α1β2 GABAA receptors (Rattus norvegicus, UniProt P62813+P63138); assay: Two electrode voltage clamp in Xenopus laevis oocytes, α1β2; conditions: α1β2
T4 construct: expressed in transfected cells; host or cells: Xenopus laevis oocytes, mRNA injected
T4 sequence (P62813 28-455): as the sequence (P62813 28-455) above
T4 sequence (P63138 25-474 limits assumed): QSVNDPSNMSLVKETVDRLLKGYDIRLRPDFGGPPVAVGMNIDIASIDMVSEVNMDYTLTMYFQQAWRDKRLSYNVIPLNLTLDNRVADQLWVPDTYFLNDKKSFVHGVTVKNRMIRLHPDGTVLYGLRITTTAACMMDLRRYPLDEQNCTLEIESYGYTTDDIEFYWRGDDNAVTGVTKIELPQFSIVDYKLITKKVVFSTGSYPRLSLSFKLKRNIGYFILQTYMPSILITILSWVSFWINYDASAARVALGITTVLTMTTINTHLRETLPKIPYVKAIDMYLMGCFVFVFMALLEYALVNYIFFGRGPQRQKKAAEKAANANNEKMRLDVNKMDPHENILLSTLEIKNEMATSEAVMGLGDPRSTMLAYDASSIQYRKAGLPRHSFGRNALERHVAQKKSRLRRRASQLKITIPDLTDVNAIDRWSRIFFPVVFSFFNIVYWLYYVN
Description: as §1, §2, §3, §4

[5] = biological target: T5, α1β3 GABAA receptors (Rattus norvegicus, UniProt P62813+P63079); assay: Two electrode voltage clamp in Xenopus laevis oocytes, α1β3
T5 construct: expressed in transfected cells; host or cells: Xenopus laevis oocytes, mRNA injected
T5 sequence (P62813 28-455): as the sequence (P62813 28-455) above
T5 sequence (P63079 26-473): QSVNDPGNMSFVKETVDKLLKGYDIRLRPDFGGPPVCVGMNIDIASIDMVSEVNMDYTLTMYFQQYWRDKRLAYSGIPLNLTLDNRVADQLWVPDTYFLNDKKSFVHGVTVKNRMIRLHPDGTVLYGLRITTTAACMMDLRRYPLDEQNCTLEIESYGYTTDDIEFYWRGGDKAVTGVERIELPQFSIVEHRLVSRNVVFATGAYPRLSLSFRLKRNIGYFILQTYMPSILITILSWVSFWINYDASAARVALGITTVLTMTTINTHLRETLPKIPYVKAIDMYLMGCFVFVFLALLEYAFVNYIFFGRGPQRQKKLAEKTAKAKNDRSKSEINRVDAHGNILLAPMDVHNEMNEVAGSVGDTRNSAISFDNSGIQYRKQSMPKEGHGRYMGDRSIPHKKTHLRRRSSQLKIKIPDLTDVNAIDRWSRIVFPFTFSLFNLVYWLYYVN
Description: as §1, §2, §3, §4

[6] = biological target: T6, α1β1R41N GABAA receptors (Rattus norvegicus, UniProt P15431+P62813, R66N); assay: Two electrode voltage clamp in Xenopus laevis oocytes, mutant α1β1R41N
T6 construct: expressed in transfected cells; host or cells: Xenopus laevis oocytes, mRNA injected
T6 sequence (P62813 28-455): as the sequence (P62813 28-455) above
T6 sequence (P15431 26-474 R66N): as the sequence (P15431 26-474) above, with R41N counted along it
Description: as §1, §2, §3, §4

[7] = biological target: T7, α1β3N41R GABAA receptors (Rattus norvegicus, UniProt P62813+P63079, N66R); assay: Two electrode voltage clamp in Xenopus laevis oocytes, mutant α1β3N41R
T7 construct: expressed in transfected cells; host or cells: Xenopus laevis oocytes, mRNA injected
T7 sequence (P62813 28-455): as the sequence (P62813 28-455) above
T7 sequence (P63079 26-473 N66R): as the sequence (P63079 26-473) above, with N41R counted along it
Description: as §1, §2, §3, §4

## COc1ccc(-n2nc3c4cc(Cl)cc(C(C)(C)C)c4[nH]cc-3c2=O)cc1 [Compound 7, 6-(tert-Butyl)-8-chloro-2-(4-methoxyphenyl)-2,5-dihydro-3H-pyrazolo[4,3-c]quinolin-3-one]
[1]; α1β1, α1β1γ1 and α1β1δ receptors (Fig. 6), versus compound 1
  shift of modulatory dose-response relative to parent compound 1: approximately twenty-fold right shift
[2]
  EC50: 21000 nM
[2]; read-out: efficacy, % of control current (GABA EC3-5 = 100%), α1β1γ1, 3 nM
  activity at 0.003 µM: 105.1 ± 0.7%
[2]; read-out: efficacy, % of control current (GABA EC3-5 = 100%), α1β1γ1, 10 nM
  activity at 0.01 µM: 106 ± 1.9%
[2]; read-out: efficacy, % of control current (GABA EC3-5 = 100%), α1β1γ1, 30 nM
  activity at 0.03 µM: 108 ± 1.4%
[2]; read-out: efficacy, % of control current (GABA EC3-5 = 100%), α1β1γ1, 100 nM
  activity at 0.1 µM: 112 ± 0.9%
[2]; read-out: efficacy, % of control current (GABA EC3-5 = 100%), α1β1γ1, 1 µM
  activity at 1 µM: 121 ± 3.2%
[2]; read-out: efficacy, % of control current (GABA EC3-5 = 100%), α1β1γ1, 3 µM
  activity at 3 µM: 159 ± 3.2%
[2]; read-out: efficacy, % of control current (GABA EC3-5 = 100%), α1β1γ1, 10 µM
  activity at 10 µM: 175 ± 13.6%
[2]; α1β1γ1
  Hill slope (nH): 0.6±0.2
[3]; read-out: EC50
  EC50: 2300 nM
[3]; read-out: efficacy, % of control current (GABA EC3-5 = 100%), α1β1δ, 3 nM
  activity at 0.003 µM: 100 ± 0.7%
[3]; read-out: efficacy, % of control current (GABA EC3-5 = 100%), α1β1δ, 10 nM
  activity at 0.01 µM: 106 ± 2.8%
[3]; read-out: efficacy, % of control current (GABA EC3-5 = 100%), α1β1δ, 30 nM
  activity at 0.03 µM: 108 ± 5.2%
[3]; read-out: efficacy, % of control current (GABA EC3-5 = 100%), α1β1δ, 100 nM
  activity at 0.1 µM: 128 ± 3.4%
[3]; read-out: efficacy, % of control current (GABA EC3-5 = 100%), α1β1δ, 300 nM
  activity at 0.3 µM: 163 ± 6.2%
[3]; read-out: efficacy, % of control current (GABA EC3-5 = 100%), α1β1δ, 1 µM
  activity at 1 µM: 381 ± 48.7%
[3]; read-out: efficacy, % of control current (GABA EC3-5 = 100%), α1β1δ, 3 µM
  activity at 3 µM: 636 ± 116%
[3]; read-out: efficacy, % of control current (GABA EC3-5 = 100%), α1β1δ, 10 µM
  activity at 10 µM: 885 ± 293%
[3]; α1β1δ
  Hill slope (nH): 1.1±0.8

## COc1ccc2[nH]cc3c(=O)n(-c4ccc(N)cc4)nc-3c2c1 [Compound 6, 2-(4-Aminophenyl)-8-methoxy-2,5-dihydro-3H-pyrazolo[4,3-c]quinolin-3-one]
[1]; read-out: efficacy, % of control current (GABA EC3-5 = 100%), α1β1, 30 nM
  activity at 0.03 µM: 100%
[1]; read-out: efficacy, % of control current (GABA EC3-5 = 100%), α1β1, 300 nM
  activity at 0.3 µM: 153 ± 9.5%
[1]; α1β1
  Hill slope (nH): 1.3±0.2
[1]; α1β1, co-applied with GABA EC3-5, read-out: EC50
  EC50: 650 nM
[4]; read-out: efficacy, % of control current (GABA EC3-5 = 100%), 30 nM
  activity at 0.03 µM: 98 ± 3%
[4]; read-out: efficacy, % of control current (GABA EC3-5 = 100%), 100 nM
  activity at 0.1 µM: 99.5 ± 5.5%
[4]; read-out: efficacy, % of control current (GABA EC3-5 = 100%), 1 µM
  activity at 1 µM: 97.5 ± 9.5%
[4]; read-out: efficacy, % of control current (GABA EC3-5 = 100%), 10 µM
  activity at 10 µM: 118 ± 9%
[4]; read-out: efficacy, % of control current (GABA EC3-5 = 100%), 30 µM
  activity at 30 µM: 105 ± 8.3%
[5]; read-out: efficacy, % of control current (GABA EC3-5 = 100%), α1β3, 3 nM
  activity at 0.003 µM: 100 ± 1.9%
[5]; read-out: efficacy, % of control current (GABA EC3-5 = 100%), α1β3, 100 nM
  activity at 0.1 µM: 95 ± 5%
[5]; read-out: efficacy, % of control current (GABA EC3-5 = 100%), α1β3, 1 µM
  activity at 1 µM: 97.5 ± 0.5%
[6]; 100nM, read-out: % of control current at EC3-5
  current as % of control at 0.1 µM: 75 ± 1%
[6]; 300nM, read-out: % of control current at EC3-5
  current as % of control at 0.3 µM: 90 ± 10%
[6]; 1μM, read-out: % of control current at EC3-5
  current as % of control at 1 µM: 90 ± 15%
[6]; 3µM, read-out: % of control current at EC3-5
  current as % of control at 3 µM: 90 ± 20%
[6]; 10μM, read-out: % of control current at EC3-5
  current as % of control at 10 µM: 70 ± 10%
[6]; 30μM, read-out: % of control current at EC3-5
  current as % of control at 30 µM: 115 ± 1%
[7]; co-applied with GABA EC3-5, read-out: EC50 values for the mutated receptors
  EC50: 1870 nM

## NCCCC(=O)O [GABA, γ-Aminobutyric acid]
[1]; α1β1, 100 nM GABA
  GABA current amplitude: 0.1±0.0 µA
[1]; α1β1, 1 µM GABA
  GABA current amplitude: 0.7±0.1 µA
[1]; α1β1, 10 μM GABA
  GABA current amplitude: 2.2±0.3 µA
[1]; α1β1, 100 µM GABA
  GABA current amplitude: 3.1±0.4 µA
[1]; α1β1, 1 mM GABA
  GABA current amplitude: 4.0±0.5 µA
[1]; α1β1, GABA dose-response curve
  GABA Hill slope (nH): 0.6±0.3
[4]; 100 nM GABA
  GABA current amplitude: 0.0±0.0 µA
[4]; 1 µM GABA
  GABA current amplitude: 0.5±0.2 µA
[4]; 10 μM GABA
  GABA current amplitude: 1.9±0.5 µA
[4]; 100 µM GABA
  GABA current amplitude: 2.6±0.6 µA
[4]; 1 mM GABA
  GABA current amplitude: 3.1±0.7 µA
[4]; GABA dose-response curve
  GABA Hill slope (nH): 0.7±0.1
[5]; α1β3, 100 nM GABA
  GABA current amplitude: 0.0±0.0 µA
[5]; α1β3, 1 µM GABA
  GABA current amplitude: 0.5±0.1 µA
[5]; α1β3, 10 μM GABA
  GABA current amplitude: 1.9±0.3 µA
[5]; α1β3, 100 µM GABA
  GABA current amplitude: 2.7±0.4 µA
[5]; α1β3, 1 mM GABA
  GABA current amplitude: 3.5±0.5 µA
[5]; α1β3, GABA dose-response curve
  GABA Hill slope (nH): 0.7±0.0
[6]; 100 nM GABA
  GABA current amplitude: 0.1±0.0 µA
[6]; 1 µM GABA
  GABA current amplitude: 0.7±0.1 µA
[6]; 10 μM GABA
  GABA current amplitude: 2.3±0.5 µA
[6]; 100 µM GABA
  GABA current amplitude: 2.9±0.7 µA
[6]; 1 mM GABA
  GABA current amplitude: 2.8±0.8 µA
[6]; GABA dose-response curve
  GABA Hill slope (nH): 1.2±0.1 and ~ 1.2
[7]; 100 nM GABA
  GABA current amplitude: 0.0±0.0 µA
[7]; 1 µM GABA
  GABA current amplitude: 1.3±0.5 µA
[7]; 10 μM GABA
  GABA current amplitude: 3.5±0.9 µA
[7]; 100 µM GABA
  GABA current amplitude: 4.0±1.1 µA
[7]; 1 mM GABA
  GABA current amplitude: 4.1±1.2 µA
[7]; GABA dose-response curve
  GABA Hill slope (nH): 1.2±0.1 and ~ 1.2
